According to patent publication US20230346827A1 (priority 2020, published 2023):

How the values were obtained:
[1] = tested on: PBMC and HUVEC + LPS (TLR4 ligand); test: BioMAP LPS system; assay type: cell-based, human; conditions: annotated relative to vehicle controls
Excerpt: (§1) Cell types and stimuli used in each system are as follows: 3C system [HUVEC + (IL-1β, TNFα and IFNy)], 4H system [HUVEC + (IL-4 and histamine)], LPS system [PBMC and HUVEC + LPS (TLR4 ligand)], SAg system [PBMC and HUVEC + TCR ligands], BT system [CD19+ B cells and PBMC + (α-IgM and TCR ligands)], BF4T system [bronchial epithelial cells and HDFn + (TNFα and IL-4)], BE3C system [bronchial epithelial cells + (IL-1β, TNFα and IFNy)], CASM3C system [coronary artery smooth muscle cells + (IL-1 β, TNFα and IFNy)], HDF3CGF system [HDFn + (IL-1β, TNFα, IFNy, EGF, bFGF and PDGF-BB)], KF3CT system [keratinocytes and HDFn + (IL-1β, TNFα, IFNy and TGFβ)], MyoF system [differentiated lung myofibroblasts + (TNFα and TGFβ)] and Mphg system [HUVEC and M1 macrophages + Zymosan (TLR2 ligand)].
(§2) Systems are derived from either single cell types or co-culture systems. Adherent cell types are cultured in 96 or 384-well plates until confluence, followed by the addition of PBMC (SAg and LPS systems). […] Soluble factors from supernatants are quantified using either HTRF® detection, bead-based multiplex immunoassay or capture ELISA. Overt adverse effects of test agents on cell proliferation and viability (cytotoxicity) are detected by sulforhodamine B (SRB) staining, for adherent cells, and alamarBlue® reduction for cells in suspension. […]

[2] = tested on: HUVEC + (IL-4 and histamine); test: BioMAP 4H system; assay type: cell-based, human; conditions: annotated relative to vehicle controls
Excerpt: as §1, §2

For sodium salt of dextran sulfate [LMW-DS], the Decreased biomarker activity [1] was “sTNFα”, the Increased biomarker activity [1] was “IL-8” and the Increased biomarker activity [2] was “uPAR”.
